According to US20040024055A1, “Pharmaceutical composition containing the exract of saururus chinensis baill useful as an anticancer agent and a process for the preparation thereof” (priority 2000, published 2004):

Experiments:
NIH-3T3 [1] = assay: Adhesion of cell to Matri-Gel; type: cell-based, mouse
Procedure: (§1) After treating HNP-98701 on tissue culture plate coated with the matrices, cancer cell was attached thereupon. To be specific, 50 μl/ml of […], 2 μg/ml of laminin, 2 μg/ml of collagen and 2 μg/ml of gelatin were coated on the surface of 96-well microplate (Corning Co.) per well. After solidifying for 2 hr, HNP-98701 was added to each well and treated for 1 hr. […] After treating the substances for 1 hr, cancer cell was added to each cell, and it was cultured for 3 hr. […] After culturing these cell lines for 3 hr, they were centrifuged. After collecting biomass only, it was washed with distilled water or PBS buffer solution for three times. […] Then, absorbance was measured at 560-405 nm with automatic Eliza detector (Molecular […] Corp., USA). […] Each experiment was performed for three times repeatedly.

NCI-H69 = assay: MTT analysis, anticancer activity; type: cell-based, human; conditions: MTT, 48 hr
Hep-2 [2] = assay: Adhesion of cancer cell to Collagen; type: cell-based, human
Procedure: as §1

SK-Hep-1 [3] = assay: Adhesion of cancer cell to Collagen; type: cell-based, human
Procedure: as §1

SK-MEL-28 [4] = assay: Adhesion of cancer cell to Collagen; type: cell-based, human
Procedure: as §1

T-47D = assay: MTT analysis, anticancer activity; type: cell-based, human; conditions: 48 hr
KATO-III = assay: MTT analysis, anticancer activity; type: cell-based, human; conditions: MTT, 48 hr
HT-29 = assay: MTT analysis, anticancer activity; type: cell-based, human; conditions: MTT, 48 hr
Hep-2 [5] = assay: Adhesion of cancer cell to Gelatin; type: cell-based, human
Procedure: as §1

SK-Hep-1 [6] = assay: Adhesion of cancer cell to Gelatin; type: cell-based, human
Procedure: as §1

SK-MEL-28 [7] = assay: Adhesion of cancer cell to Gelatin; type: cell-based, human
Procedure: as §1

NIH-3T3 [8] = assay: Adhesion of cell to Laminin; type: cell-based, mouse
Procedure: as §1

SK-N-SH = assay: MTT analysis, anticancer activity; type: cell-based, human; conditions: 48 hr
SK-MEL-28 [9] = assay: MTT analysis, anticancer activity; type: cell-based, human; conditions: 48 hr
CPAE = assay: MTT analysis, cytotoxicity against normal cell line; type: cell-based, bovine; conditions: MTT, 48 hr
ME-180 = assay: MTT analysis, anticancer activity; type: cell-based, human; conditions: MTT, 48 hr
BT-549 = assay: MTT analysis, anticancer activity; type: cell-based, human; conditions: MTT, 48 hr
MCF-7 = assay: MTT analysis, anticancer activity; type: cell-based, human; conditions: MTT, 48 hr
Hep-2 [10] = assay: Adhesion of cancer cell to Laminin; type: cell-based, human
Procedure: as §1

SMILES: N.N.[Cl][Pt][Cl] [Cisplatin]
- Adhesion NIH-3T3 (%) (NIH-3T3 [1]; 0.5 μg/ml): 105.67%
- Adhesion NIH-3T3 (%) (NIH-3T3 [1]; 5 μg/ml): 102.40%
- Adhesion NIH-3T3 (%) (NIH-3T3 [1]; 50 μg/ml): 101.06%
- IC50 NCI-H69 (NCI-H69): 0.6382 µg/mL
- Adhesion Hep-2 (%) (Hep-2 [2]; 0.5 μg/ml): 92.23%
- Adhesion Hep-2 (%) (Hep-2 [2]; 5 μg/ml): 89.35%
- Adhesion Hep-2 (%) (Hep-2 [2]; 50 μg/ml): 82.83%
- Adhesion SK-Hep-1 (%) (SK-Hep-1 [3]; 0.5 μg/ml): 104.22%
- Adhesion SK-Hep-1 (%) (SK-Hep-1 [3]; 5 μg/ml): 104.57%
- Adhesion SK-Hep-1 (%) (SK-Hep-1 [3]; 50 μg/ml): 95.90%
- Adhesion SK-MEL-28 (%) (SK-MEL-28 [4]; 0.5 μg/ml): 98.46%
- Adhesion SK-MEL-28 (%) (SK-MEL-28 [4]; 5 μg/ml): 106.83%
- Adhesion SK-MEL-28 (%) (SK-MEL-28 [4]; 50 μg/ml): 117.62%
- IC50 T-47D (T-47D): 2.0468 µg/mL
- IC50 KATO-III (KATO-III): 2.2875 µg/mL
- IC50 HT-29 (HT-29): 6.1224 µg/mL
- Adhesion Hep-2 (%) (Hep-2 [5]; 0.5 μg/ml): 97.20%
- Adhesion Hep-2 (%) (Hep-2 [5]; 5 μg/ml): 100.13%
- Adhesion Hep-2 (%) (Hep-2 [5]; 50 μg/ml): 91.07%
- Adhesion SK-Hep-1 (%) (SK-Hep-1 [6]; 0.5 μg/ml): 79.16%
- Adhesion SK-Hep-1 (%) (SK-Hep-1 [6]; 5 μg/ml): 74.84%
- Adhesion SK-Hep-1 (%) (SK-Hep-1 [6]; 50 μg/ml): 61.25%
- Adhesion SK-MEL-28 (%) (SK-MEL-28 [7]; 0.5 μg/ml): 92.48%
- Adhesion SK-MEL-28 (%) (SK-MEL-28 [7]; 5 μg/ml): 91.13%
- Adhesion SK-MEL-28 (%) (SK-MEL-28 [7]; 50 μg/ml): 86.40%
- Adhesion NIH-3T3 (%) (NIH-3T3 [8]; 0.5 μg/ml): 93.86%
- Adhesion NIH-3T3 (%) (NIH-3T3 [8]; 5 μg/ml): 94.94%
- Adhesion NIH-3T3 (%) (NIH-3T3 [8]; 50 μg/ml): 92.45%
- IC50 SK-N-SH (SK-N-SH): 2.1178 µg/mL
- IC50 SK-MEL-28 (SK-MEL-28 [9]): 4.3157 µg/mL
- IC50 CPAE (CPAE): 0.8252 µg/mL
- IC50 ME-180 (ME-180): 0.9365 μg/ml
- IC50 BT-549 (BT-549): 1.2522 µg/mL
- IC50 MCF-7 (MCF-7): 2.9412 µg/mL
- Adhesion Hep-2 (%) (Hep-2 [10]; 0.5 μg/ml): 102.63%
- Adhesion Hep-2 (%) (Hep-2 [10]; 5 μg/ml): 101.25%
